The values below come from patent publication US10363239B2, “Method for inhibiting growth of cancer cells” (Pain Therapeutics, Inc., priority 2013, dated 2019).

In one test the test system is glioblastoma cells. The test can be described thus: Glucose deprivation-induced apoptosis markers (cleaved PARP-1, caspase-3) by Western blotting. Conditions: 1 nM; Day 3 and 4. The format is cell-based, human. How it is done: . The resultant cell lysates were size-fractionated on SDS-PAGE and Western blotting with antibodies specific for Cleaved […] (Asp214) and caspase-3 (Asp175). The protein bands were quantified by densitometric scanning. […] . Data are mean±S.E.M. of ratios (FIG. 3B) and % inhibition (FIG. 3C). […] N=5. *p<0.01 compared to Day 0. #p<0.01 compared to vehicle (open bars).
. The cells were washed with PBS, incubated in 0.1% fetal bovine serum (FBS) for 16 hours and incubated in glucose-free 0.1% FBS-containing medium for up to 4 days in the presence of vehicle or 1 nM Compound C0105. The cells in the entire well were collected by centrifugation. […] The protein concentrations were measured by the Bradford method.
The cells were homogenized and the obtained homogenates were centrifuged to remove nucleus and mitochondria. […] The level of apoptotic cell death was determined using Western blotting in 50 μg solubilized cell lysates with antibodies against cleaved PARP-1 (Asp^214) and caspase-3 (Asp^175), both at 1:1000 dilution. […] Bands at the relevant molecular masses of Ki67 and PCNA were quantified by densitometric scan. Membranes were stripped, washed 5× in 0.1% PBST (2 minutes each wash) and the actin content analyzed by immunoblotting using monoclonal anti-actin to illustrate even loading.
(A western blot detects proteins with antibodies after separation by electrophoresis.)

In test [1] the test system is primary neuroendocrine tumor cells. The test can be described thus: Cell proliferation by Ki67 and PCNA (Western blotting). Type of test: cell-based, human. Conditions: 1 nM; 4 days.
In test [2] the test system is breast cancer HTB-22 cells. The test can be described thus: [3H]glucose uptake. Type of test: cell-based, human. Conditions: 0.1-5 nM; 4 days. How it is done: (§1) FIG. 1A through FIG. 1M illustrate the effects of various FLNA-binding compounds on glucose uptake in glioblastoma, melanoma, breast and pancreatic cancer cell lines, along with appropriate non-cancerous primary cell controls. Cells were grown in the absence or presence of 0.1-5 nM indicated compounds for 4 days. Following brief washes with PBS, cells were serum-deprived for 4 hours and then incubated in oxygenated Kreb's Ringer containing 0.1 μCi [^3H]glucose for 2 hours under constant oxygenation. The reaction was terminated by removal of the incubation medium, and cells were washed and scraped off to determine the amounts of [^3H]glucose in cells by scintillation spectrometry. […] N=5-6. […] . […] . To determine the effect of Compound C0105 on glucose utilization, the cancer and primary normal cells were plated extremely thinly (10%). Once cells attached, Compound C0105 was added at 0.1, 0.5, 1 or 5 nM in the medium twice daily (6 hours apart) for 4 days. The cells were serum-deprived (glucose deprived) for 2 hours. Cells were then rinsed with 1 ml PBS and glucose uptake was assessed by contacting the cells with [^3H]glucose (0.01 uCi/l ml) in Kreb's Ringer for 2 hours. Cells were then rinsed with 1 ml PBS 3 times, scraped off and their glucose content counted by liquid scintillation spectrophotometry.

In test [3] the test system is pancreatic cancer MiaPaCa2 cells. The test can be described thus: [3H]glucose uptake. Particulars: 0.1-5 nM; 4 days. The format is cell-based, human. As to the method:
as §1

Test [4] concerns pS2152FLNA, FLNA-associated PTEN and PP2A in melanoma cells. The test can be described thus: pS2152FLNA and FLNA-associated PTEN and PP2A in anti-FLNA immunoprecipitate (Western blotting). Type of test: cell-based, human. Particulars: 0.1-5 nM; 4 days. As to the method:
The effect of Compound C0105 on the levels of pS^2152FLNA and FLNA-associated phosphatases, PTEN and PP2A subclasses was determined in melanoma cells. Cells were treated with vehicle and 0.1-5 nM Compound C0105 for 4 days. Cells were washed, solubilized and the resultant cell lysate was immunoprecipitated with anti-FLNA. The levels of pS^2152FLNA and FLNA-associated phosphatases, PTEN and PP2A subclasses in the anti-FLNA immunoprecipitate were determined by Western blotting. The density of protein bands was quantified by densitometric scanning. […] N=4. **p<0.05, *p<0.01 compared to vehicle (open bars). […]
(§2) The cell lysates were diluted 5-fold with immunoprecipitation buffer and immunoprecipitated with anti-FLNA, -Akt, -mTOR and -ERK2 as described previously [Talbot et al., J Clin Inv 122(4):1-23 (2012); Wang et al., J Neurosci 32(29):9773-9784 (2012)]. The levels of FLNA linkages, activated phosphorylated Akt (pS^473 and pT^308), phosphorylated mTOR (pS^2448) and phosphorylated ERK2 (pY/pT) were determined in anti-FLNA, -Akt, -mTOR and -ERK2 immunoprecipitates by Western blotting with appropriate antibodies directed against PTEN, PP2A, K-RAS, ras-GAP (FLNA linkages), pS^473Akt, pT^308Akt, pS^2448mTOR and pY/pT ERK2 (activation of Akt, mTOR and ERK2).

The subject of test [5] is human mammalian epithelial cells (HMEC). The test can be described thus: [3H]glucose uptake. The format is cell-based. Conditions: 0.1-5 nM; 4 days. As to the method:
as §1

For test [6], the system named is primary human pancreatic epithelial cells. The test can be described thus: [3H]glucose uptake. Particulars: 0.1-5 nM; 4 days. Type of test: cell-based. How it is done: as §1
The test system of test [7] is pS2448mTOR, pS473Akt, pY/pT-ERK2 in melanoma cells. The test can be described thus: Activated (phosphorylated) mTOR, Akt and ERK2 levels (immunoprecipitation, Western blotting). Particulars: 0.1-5 nM; 4 days. The format is cell-based, human. How it is done: FIG. 11A through FIG. 11C illustrate the effect of contact with Compound C0105 on the levels of activated (phosphorylated) mTOR (pS^2448mTOR), Akt (pS^473Akt) and ERK2 (pY/pT-ERK2) in melanoma cells. Cells were treated with vehicle and 0.1-5 nM Compound C0105 for 4 days. Cells were washed, solubilized and the resultant cell lysate was immunoprecipitated with anti-mTOR, -Akt or -ERK2. The levels of pS^2448mTOR, pS^473Akt, pY/pTERK2 in the respective anti-mTOR, -Akt, and -ERK2 immunoprecipitates were determined by Western blotting. The density of protein bands was measured by densitometric scanning. […] N=4. *p<0.01 compared to vehicle (open bars). […]
as §2

Molecules are shown by their SMILES.

Regarding `CN1CCC2(CC1)NCC(=O)N2Cc1ccccc1` [Compound C0105], the “Glucose deprivation-induced cell death by cleaved PARP-1 and caspase-3” value in the test with glioblastoma cells was “attenuates glucose deprivation-induced cell death”. The “Cell proliferation (Ki67 and PCNA levels)” value in test [1] was “Inhibits Proliferation”. For the same compound, the Basal glucose uptake result in test [2] is reported as “dose-dependent inhibition of basal glucose uptake”; in test [3], “dose-dependent inhibition of basal glucose uptake”; in test [5] it was “no change”; in test [6] it was “no effect”. Besides, the “FLNA-associated PTEN and PP2A levels” value in test [4] is “increases FLNA-associated PTEN and PP2A levels”. Moreover, in test [4], the pS2152FLNA level result is “reduces pS^2152FLNA”. Further, the “mTOR, Akt and ERK activation (phosphorylated mTOR, Akt and ERK)” value in test [7] is “robustly reduces mTOR, Akt and ERK activation”.
